# Reference: US7476755B2, “Therapeutic compounds” (Allergan, Inc., priority 2006, dated 2009)
# Legend:
# In vivo testing, dog IOP = conditions: Conc. 0.1% (g/100 mL)
# Text: (§1) In vivo testing done as described in U.S. patent application Ser. No. 11/009,298 gave the results in Table 2 below.
# [1] = In vivo testing, dog hyperemia; conditions: Conc. 0.1% (g/100 mL)
# Text: as §1
# [2] = In vivo testing, monkey IOP; conditions: Conc. 0.1% (g/100 mL)
# Text: as §1
# [3] = In vivo testing, rabbit hyperemia; conditions: Conc. 0.1% (g/100 mL)
# Text: as §1
# hEP2/Gqs5 = target: T1, hEP2/Gqs5 (Homo sapiens, UniProt P43116); assay: FLIPR calcium signal, EP2; format: cell-based; conditions: HEK-293(EBNA) cells, read-out: EP2 Ca2+ EC50
# T1 construct: expressed in transfected cells
# Protocol: HEK-293(EBNA) cells, stably expressing one type or subtype of recombinant human prostaglandin receptors (prostaglandin receptors expressed: hDP/Gqs5; hEP2; hEP2/Gqs5; hEP3A/Gqi5; hEP4/Gqs5; hFP; hIP; hTP), were cultured in 100 mm culture dishes in high-glucose DMEM medium containing 10% fetal bovine serum, 2 mM I-glutamine, 250 μg/ml geneticin (G418) and 200 μg/ml hygromycin B as selection markers, and 100 units/ml penicillin G, 100 μg/ml streptomycin and 0.25 μg/ml amphotericin B.
# Cells were seeded at a density of 5×10^4 cells per well in Biocoat® Poly-D-lysine-coated black-wall, clear-bottom 96-well plates (Becton-Dickinson) and allowed to attach overnight in an incubator at 37° C. Cells were then washed two times with HBSS-HEPES buffer (Hanks Balanced Salt Solution without bicarbonate and phenol red, 20 mM HEPES, pH 7.4) using a Denley Cellwash plate washer (Labsystems). […]
# Cells were excited with an Argon laser at 488 nm, and emission was measured through a 510-570 nm bandwidth emission filter (FLIPR™, Molecular Devices, Sunnyvale, Calif.). […] The peak increase in fluorescence intensity was recorded for each well. […] The peak fluorescence change in each drug-containing well was then expressed relative to the controls. […]
# EP4 = target: T2, EP4 (Homo sapiens, UniProt P35408); assay: Radioligand binding, EP4; conditions: HEK-293 cells expressing EP4, [3H]PGE2; read-out: EP4 Ki EC50
# T2 construct: expressed in transfected cells; membrane fraction
# Protocol: HEK-293 cells stably expressing the human or feline FP receptor, or EP1, EP2, or EP4 receptors were washed with TME buffer, scraped from the bottom of the flasks, and homogenized for 30 sec using a Brinkman PT 10/35 polytron. TME buffer was added to achieve a final 40 ml volume in the centrifuge tubes (the composition of TME is 100 mM TRIS base, 20 mM MgCl2, […]; 10N HCl is added to achieve a pH of 7.4).
# The cell homogenate was centrifuged at 19000 r.p.m. for 20 min at 4° C. using a Beckman Ti-60 rotor. The resultant pellet was resuspended in TME buffer to give a final 1 mg/ml protein concentration, as determined by Biorad assay. Radioligand binding competition assays vs. [^3H-]17-phenyl PGF2n (5 nM) were performed in a 100 μl volume for 60 min. Binding reactions were started by adding plasma membrane fraction. The reaction was terminated by the addition of 4 ml ice-cold TRIS-HCl buffer and rapid filtration through glass fiber GF/B filters using a Brandel cell harvester. The filters were washed 3 times with ice-cold buffer and oven dried for one hour.
# [^3H-] PGE2 (specific activity 180 Ci mmol) was used as the radioligand for EP receptors. [^3H] 17-phenyl PGF2α was employed for FP receptor binding studies. […] 17-phenyl PGF2α and non-specific binding determined with 10^−5M of unlabeled PGE2, or 17-phenyl PGF2α, according to receptor subtype studied.
# EP2 [4] = target: T3, EP2 (Homo sapiens, UniProt P43116); assay: Competition binding, human EP2 receptors ([3H]PGE2); parameters: expressed in transfected cells; conditions: HEK 293 cells stably expressing human EP2, [3H]PGE2
# Protocol: Competition binding experiments were performed in a medium containing Hank's balanced salt solution, Hepes 20 mM, pH 7.3, membranes (˜60 μg protein) or 2×10^5 cells from HEK 293 cells stably expressing human EP2 receptors, [^3H]PGE2 (10 nM) and various concentrations of test compounds in a total volume of 300 μl. Reaction mixtures were incubated at 23° C. for 60 min, and were filtered over Whatman GF/B filters under vacuum. Filters were washed three times with 5 ml ice-cold buffer containing 50 mM Tris/HCl (pH 7.3). Non-specific binding was estimated in the presence of excess unlabeled PGE2 (10 μM). Binding data fitted to the binding model for a single class of binding sites, using nonlinear regression analysis. IC50 values thus obtained were converted to Ki using the equation of Ki=(IC50/(1+[L]/KD) where [L] represents PGE2 concentration (10 nM) and KD the dissociation constant for [^3H]PGE2 at human EP2 receptors (40 nM). […]
# The cell homogenate was centrifuged at 19000 r.p.m. for 20 min at 4° C. using a Beckman Ti-60 rotor. The resultant pellet was resuspended in TME buffer to give a final 1 mg/ml protein concentration, as determined by Biorad assay. […]
# [^3H-] […] 17-phenyl PGF2α and non-specific binding determined with 10^−5M of unlabeled PGE2, or 17-phenyl PGF2α, according to receptor subtype studied.
# EP2 [5] = target: T3, EP2; assay: cAMP assay, EP2; format: cell-based; parameters: expressed in transfected cells; host or cells: HEK-EBNA cells; conditions: HEK-EBNA cells expressing EP2
# Protocol: A 384-well drug plate was prepared to contain 6 test compounds, PGE2 and cAMP in 16 serial dilutions in triplicate, using a Biomek station. HEK-EBNA cells expressing a target PG receptor subtype (EP2 or EP4) were suspended in a stimulation buffer (HBSS, 0.1% BSA, 0.5 mM IBMX and 5 mM HEPES, pH 7.4) in a density of 10^4 cells/5 μl. The reaction was initiated by mixing […] drug dilutions with 5 μl of HEK-EBNA cells in a well, carried out for 30 min at room temperature, and followed by the addition of 5 μl anti-cAMP acceptor beads in the control buffer with Tween-20 (25 mM NaCl, 0.03% Tween-20, 5 mM HEPES, pH7.4). After 30 min in the dark at room temperature, the mixtures were incubated with 15 μl biotinylated-cAMP/strepavidin donor beads in Lysis/Detection buffer (0.1% BSA, 0.3% Tween-20 and 5 mM HEPES, pH7.4) for 45 min at the room temperature. Fluorescence changes were read using a Fusion-alpha HT microplate reader.
# T3 sequence (P43116 whole entry): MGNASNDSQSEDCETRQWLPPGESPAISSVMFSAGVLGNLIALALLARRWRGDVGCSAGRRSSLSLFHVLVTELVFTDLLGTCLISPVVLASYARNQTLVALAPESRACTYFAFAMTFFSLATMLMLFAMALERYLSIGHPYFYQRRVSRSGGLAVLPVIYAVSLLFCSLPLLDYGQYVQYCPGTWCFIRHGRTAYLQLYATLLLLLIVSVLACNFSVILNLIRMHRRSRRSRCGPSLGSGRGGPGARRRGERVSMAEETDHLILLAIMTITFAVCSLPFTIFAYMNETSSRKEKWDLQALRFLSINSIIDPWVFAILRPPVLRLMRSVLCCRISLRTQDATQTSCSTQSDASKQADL
# T1 sequence (P43116 whole entry): as above
# T2 sequence (P35408 whole entry): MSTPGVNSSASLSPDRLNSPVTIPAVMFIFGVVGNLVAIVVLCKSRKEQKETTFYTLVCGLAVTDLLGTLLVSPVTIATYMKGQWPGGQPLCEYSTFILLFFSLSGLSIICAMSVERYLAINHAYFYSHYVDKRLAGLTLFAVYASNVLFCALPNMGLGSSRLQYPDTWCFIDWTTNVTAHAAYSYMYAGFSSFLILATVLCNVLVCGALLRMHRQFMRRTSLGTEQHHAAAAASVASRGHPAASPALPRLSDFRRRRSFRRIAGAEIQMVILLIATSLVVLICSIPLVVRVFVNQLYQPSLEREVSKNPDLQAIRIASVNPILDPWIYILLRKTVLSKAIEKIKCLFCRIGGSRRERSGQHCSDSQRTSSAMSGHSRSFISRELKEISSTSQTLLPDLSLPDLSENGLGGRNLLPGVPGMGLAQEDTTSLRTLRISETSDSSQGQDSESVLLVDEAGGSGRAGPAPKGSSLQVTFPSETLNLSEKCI
Structure (SMILES),"DOG Max. IOP (%) (In vivo testing, dog IOP)",DOG Max. hyperemia [1],MONKEY Max. IOP (%) [2],RABBIT Max. hyperemia [3],EC50 (hEP2/Gqs5),Ki (EP4),Ki (EP2 [4]),EC50 (EP2 [5])
CCCCCC(=O)c1ccc([C@@H]2[C@@H](C/C=C\CCCC(=O)O)[C@H](Cl)C[C@H]2O)cc1 [Entry 1],−50%,2.0,31%,,,,,
CCCCCC(=O)c1ccc([C@@H]2[C@@H](C/C=C\CCCC(=O)OC(C)C)[C@H](Cl)C[C@H]2O)cc1 [Entry 2],−37%,0.8,20%,0,,,,
CCCCCC(=O)c1ccc([C@@H]2[C@@H](C/C=C\CCCC(=O)O)[C@H](Cl)C[C@H]2O)cc1 [drawing 41],,,,,31 nM,2810 nM,111 nM,9 nM
